“Also recorded” adds a separate entry of the source.
Tests used:
Balb/c mice [1] = assay: Animal transfection of lipid nanoparticles, in vivo imaging after 24 h; conditions: leg muscle injection, 0.1 mg/kg FFluc mRNA; for Multiple of total photon intensity in the supine position relative to MC3: Table 5, Balb/c mice; for Multiple of local photon intensity in the supine position relative to MC3: Table 5, injection site
Method: (§1) Balb/c mice (available from Vital River Laboratory Animal Technology Co., Ltd., male, 6-8 weeks old, 20-24 g) were randomized into groups, 5 mice per group. The mice were injected the prepared lipid nanoparticles into the leg muscle at a dose of 0.1 mg/kg (calculated as to FFluc mRNA (SEQ ID NO.1)) and observed by in vivo imaging after 24 h. The injection sites on the bellies and legs of Balb/c mice were depilated, and after anesthesia, the animals were injected D-luciferin potassium salt intraperitoneally, and were observed and photographed in an IVIS living body imager (PerkinElmer, Series III), wherein the observation time of living body images was within 15 min after the injection of substrate. Table 5. Results of animal transfection efficiency of lipid nanoparticles made from different cationic lipids

Balb/c mice [2] = assay: Animal transfection of lipid nanoparticles, in vivo imaging after 12 h; conditions: for Multiple of local photon intensity in the supine position relative to MC3 / Multiple of photon intensity of the viscera in the supine position relative to MC3: Table 8, 0.1 mg/kg FFluc mRNA, 12 h; for Multiple of local photon intensity in the supine position relative to MC3: injection site; for Multiple of photon intensity of the viscera in the supine position relative to MC3: viscera (liver); for toxic and side effect on the liver: inferred from expression in the liver 12 h after administration
Method: as §1, with “after 12” for “after 24”, “Table 7.” for “Table 5.”

Structure (SMILES)	Multiple of total photon intensity in the supine position relative to MC3 (Balb/c mice [1])	Multiple of local photon intensity in the supine position relative to MC3 (Balb/c mice [1])	Multiple of local photon intensity in the supine position relative to MC3 (Balb/c mice [2])	Multiple of local photon intensity in the supine position relative to MC3 (Balb/c mice [2]; 0.1 mg/kg)	Multiple of photon intensity of the viscera in the supine position relative to MC3 (Balb/c mice [2])	toxic and side effect on the liver (Balb/c mice [2])
CCCCCCCCC(CCCCCC)C(=O)OCC(CN(C)CCN1CCCC1)OC(=O)C(CCCCCC)CCCCCCCC (stereo not drawn) [Compound 1]	1.668	significantly higher	not weaker than that of MC3 LNP	–	–	–
CCCCCCCCC(CCCCCC)C(=O)OCC(CN(C)CCN1CCN(C)CC1)OC(=O)C(CCCCCC)CCCCCCCC (stereo not drawn) [Compound 2]	equivalent	significantly higher	not weaker than that of MC3 LNP	–	–	–
CCCCCCCCC(CCCCCCCC)OC(=O)CCCCC(=O)OCC(CN(C)CCN1CCN(C)CC1)OC(=O)CCCCC(=O)OC(CCCCCCCC)CCCCCCCC (stereo not drawn) [Compound 17]	–	–	–	equivalent; also recorded: not weaker than that of MC3 LNP	almost have no expression in the liver	completely avoid liver toxicity; also recorded: completely avoid the toxic and side effect on the liver
CCCCCCCCC(CCCCCCCC)OC(=O)CCCCC(=O)OCC(CN(C)CCN1CCCC1)OC(=O)CCCCC(=O)OC(CCCCCCCC)CCCCCCCC (stereo not drawn) [Compound 18]	–	–	–	equivalent; also recorded: not weaker than that of MC3 LNP	almost have no expression in the liver	completely avoid liver toxicity; also recorded: completely avoid the toxic and side effect on the liver

Reference: EP4603481A1, “PREPARATION AND USE OF CATIONIC LIPID MATERIAL” (Nanjing Geneleap Biotechnology Co., Ltd., priority 2022, dated 2024)
